Assay results as given in patent publication US20210154271A1, “CORNEAL EPITHELIAL CELL CHEMOTAXIS PROMOTER” (SHIODA LIFE SCIENCE INC., priority 2018, published 2021).
Ends that are not written are not given here.

Experiments:
HCEC-II cells [1] = assay: Analysis of cell growth ability (MTT-assay); assay type: cell-based, human
Method: (§1) Normal human corneal epithelial cells HCEC-II (manufactured by Kurabo Industries Ltd.) were cultured in an OcuLifeBM medium containing OcuLifeLifeFactor (both manufactured by Kurashiki Spinning Co., Ltd.) at 37° C., in the presence of 5% CO2.
HCEC-II cells were seeded in 96-well plates and cultured for 24 h. Subsequently, PACAP alone, or PACAP and AraC (cytarabine) were added. AraC (cytarabine) is a cytostatic agent. After the addition of these agents, the cell growth ability was analyzed by measuring the number of live cells from the value of absorbance at 570 nm using MTT cell growth kit I (manufactured by Roche Life Science Co., Ltd.). The reference wavelength was set at 650 nm.
The effects of PACAP are either due to 1) promoting cell growth, 2) promoting cell chemotaxis, or 3) promoting both cell growth and chemotaxis. To elucidate which of these could be caused, cell growth on days 1 and 4 after adding various concentrations of PACAP (10^−9 M to 10^−13 M) were analyzed by MTT-assay.

[2] = test system: model mice with injured corneas; assay: Instillation of PACAP receptor antagonists on model mice with injured corneas; assay type: in vivo, mouse
Text: Next, to investigate which types of receptors are involved in healing-promoting effects of injured corneas by PACAP, the inventors performed an instillation experiment of PACAP receptor antagonists (PACAP6-38, VIP6-28). PACAP6-38 is an antagonist of PAC1R and VPAC2R. VIP6-28 is an antagonist of VPAC1R and VPAC2R.
In addition to the same operations as the instillation experiment in Example 5, PACAP6-38 (antagonist) (10^−9 M) or VIP6-28 (antagonist) (10^−9 M) was instilled immediately before instillation of PACAP and saline. Instillation of PACAP and saline ware performed every 2 hours.
Following four groups were created; the saline-only-instilled group, the PACAP-only-instilled group, the group instilled saline and an antagonist simultaneously, the group instilled PACAP and an antagonist simultaneously.
FIG. 10A is the result of PACAP6-38, and FIG. 10B is the result of VIP6-28. In FIG. 10, “saline” indicates the saline-only-instilled group. “PACAP” indicates the PACAP-only-instilled group. “PACAP6-38” or “VIP6-28” indicates the group instilled saline and an antagonist simultaneously. “PACAP6-38+PACAP” or “VIP6-28+PACAP” indicates the group instilled PACAP and an antagonist simultaneously.
As well as FIG. 9C, the area of the injured site of the cornea immediately after injury to the cornea (0 hour) is set as 100%.

[3] = test system: eye of a rabbit with detached corneas; settings: PACAP administered to eye, in comparison with controls; cited from earlier work
[4] = test system: mice with lacrimal glands removed, injured corneas; assay: Corneal healing in mice with lacrimal glands removed; assay type: in vivo, mouse; settings: LG−PACAP vs LG−saline, 10^−11 M PACAP, 12 hours after injuring, p<0.05 (FIG. 11)
Text: (§2) First, mice with lacrimal glands removed were generated. Under inhalation anesthesia with sevoflurane, the extraorbital lacrimal glands and lacrimal ducts of mice were removed. Both lacrimal glands were removed after the lacrimal ducts were removed to expose the intraorbital lacrimal glands. Then the skin was sutured and the mice were kept warm until awaking from anesthesia. The amount of tear secretion in mice before and after removal of lacrimal glands was confirmed by the cotton thread method.
FIG. 11 is a graph showing the measurement result of the area of injured sites of corneas (fluorescent area) of upon administration of saline or PACAP at 0, 12, and 24 hours after injuring of corneas of mice. The method and the frequency of administration of saline or PACAP were the same as in Example 5.
(§3) The area of the injured site of the cornea immediately after injury to the cornea (0 hour) is set as 100%.
In FIG. 11, “LG+saline” indicates the result of saline administration to mice without lacrimal glands removed. “LG+PACAP” indicates the result of PACAP administration to mice without lacrimal glands removed. “LG−saline” indicates the result of saline administration to mice with lacrimal glands removed. “LG−PACAP” indicates the result of PACAP administration to mice with lacrimal glands removed. The concentration of PACAP is 10^−11 M.

[5] = test system: Normal human corneal epithelial cells HCEC-II; assay: Scratch assay on HCEC-II cells; assay type: cell-based
Method: as §1
Wound-healing-promoting effects of PACAP were evaluated by scratch assay. HCEC-II cells were seeded in 24-well plates, cultured, and then wounded by a CELL Scratcher scratch stick (manufactured by Asahi Glass Co., Ltd.) (between a dotted line and a dotted line in FIG. 1).
Immediately after wounding, PACAP38 alone or PACAP38 and AraC were added, and cells infiltrating the wounded area were observed.
(§4) Outcomes of scratch assay and BrdU labeling were evaluated as following. Images were acquired by BZ-X700 (Keyence Inc.), and then quantitatively analyzed using the analysis applications (hybrid cell counts, macro cell counts) (Keyence Inc.).

[6] = test system: mice with lacrimal glands removed; assay: Tear secretion by the cotton thread method; assay type: in vivo, mouse; settings: mice with lacrimal glands removed (not shown in figures)
Text: as §2

HCEC-II cells [7] = assay: BrdU labeling of dividing cells; assay type: cell-based, human; settings: 18 hours after adding PACAP (FIGS. 4A, 4B and 5)
Method: Post-wounding dividing cells were observed by labeling with BrdU Labeling and Detection Kit I (Roche).
as §4

[8] = test system: model mice with injured corneas; assay: PACAP instillation on model mice with injured corneas; assay type: in vivo, mouse (C57BL/6J)
Method: To study the healing effects of PACAP instillation on an injured site of a corneal, the inventors created model mice with injured corneas. Injured sites were created by marking a cornea of a mouse (C57BL/6J, male, 8-12 weeks old) with a 1-mm-diameter biopsy punch and detaching corneal epithelia within the marks with tweezers. At the injured sites, 2 μL of 10^−9 M PACAP, 10^−11 M PACAP, 10^−13 M PACAP, or saline was instilled every 2 hours for a total of seven times up to 12 hours later. In addition, the injured sites were visualized by instilling 2 μL of 0.1% fluorescein (a fluorescent colorant) in a total of 3 times after 0, 12, and 24 hours, and photographing was performed.
In addition, eyeballs at after 0 and 12 hours were removed, and tissue sections were made after paraffin embedding, followed by hematoxylin and eosin staining (HE staining). From the captured fluorescent images, by using image analysis software (ImageJ), the area and the outer periphery of injured sites of corneas were measured when saline was instilled and when PACAP of the respective concentrations were instilled.
as §3

[9] = test system: SV40-human corneal epithelial cell line (HCEC); assay: In vitro scratch assay on monolayer sheets of human corneal cultured cells; assay type: cell-based; settings: 10^−11 M PACAP, 6 hours after scratching, vs PBS-treated control group (FIG. 12B)
Method: To evaluate the corneal healing effects of PACAP in vitro, a scratch assay was performed using a human corneal epithelial cell line. A SV40-human corneal epithelial cell line (HCEC) was purchased from the Human Science Research Resource Bank (Health Science Research Resources Bank). Cells were cultured in a medium containing DMEM, 1×antibiotic-antifungal agent (manufactured by Thermo Fisher Scientific Co., Ltd.), and 10% fetal bovine serum (FBS). Cultures were performed at 37° C. in the presence of 5% CO2.
In invasion assays, a floating HCEC with 10^6 cells was seeded in 12-well plates. After 2 days of incubation, the confluent cell layer was cross-shaped wounded with plastic sticks. PBS or various types of PACAP (final concentrations: 10^−15 M, 10^−13 M, 10^−11 M, 10^−9 M, and 10^−7 M) were added to […]. Scratch sites (wounded sites) were photographed by Nicon Biostation CT (Nikon Co., Ltd.) at regular intervals. Areas of the scratch sites were measured by CL-Quant software (made by Nikon Inc.).
The area of the scratch site immediately after the scratch (0 hour) is set as 100%.

[10] = 10^−9 M PACAP and 15 μM AraC (FIG. 1A to C)

Compound: Nc1ccn([C@@H]2O[C@H](CO)[C@@H](O)[C@@H]2O)c(=O)n1 [AraC, cytarabine, reference compound]
- effect of AraC on the cell-growth-promoting effects of PACAP (HCEC-II cells [1]; 15 μM AraC): almost completely suppressed

Compound: PACAP6-38: PACAP receptor antagonist; antagonist of PAC1R and VPAC2R (FTDSYSRYRKQMAVKKYLAAVLGKRYKQRVKNK; ends and bridges not checked; UniProt P18509 137-169, looked up, fragment)
- effect of antagonist on PACAP-induced healing of injured corneas ([2]; antagonist 10^−9 M instilled with PACAP, 12 hours after injuring, vs PACAP-only group, p<0.05 (FIG. 10A)): significantly suppressed

Compound: VIP6-28: PACAP receptor antagonist; antagonist of VPAC1R and VPAC2R (FTDNYTRLRKQMAVKKYLNSILN; ends and bridges not checked; UniProt P01282 130-152, looked up, fragment)
- effect of antagonist on PACAP-induced healing of injured corneas ([2]; antagonist 10^−9 M instilled with PACAP (FIG. 10B)): not suppressed

Compound: PACAP: Pituitary Adenylate Cyclase-Activating Polypeptide; PACAP38, 38 amino acid residues (Peptide Research Institute, Osaka) (HSDGIFTDSYSRYRKQMAVKKYLAAVLGKRYKQRVKNK; ends and bridges not checked; UniProt P18509 132-169, looked up)
- restoration of corneal epithelium [3]: accelerated
- area of injured sites of corneas (fluorescent area) [4]: became significantly smaller
- cell-infiltration compared with 10^−9 M PACAP alone [5, 10]: less
- cell-infiltration compared with controls [5, 10]: increased more than in controls
- area of the wounded site at 18 h ([5]; 10^−9 M PACAP in the presence of 15 μM AraC, compared to the control (FIG. 6)): increased
- cellular infiltrates at the wounded site ([5]; 10^−9 M PACAP, 4 days post-wounding, compared to controls (FIG. 1A, B)): more cellular infiltrates were observed at the wounded site
- area of the wounded site ([5]; 10^−9 M PACAP, compared to controls (FIG. 2, 18 h)): reduced
- area of the wounded site at 18 h ([5]; 10^−11 M PACAP in the presence of 15 μM AraC (FIG. 6)): reduced
- tear secretion after instillation [6]: did not promote tear secretion
- cell growth by MTT-assay (HCEC-II cells [1]; 1 day after addition, 10^−9 M to 10^−13 M PACAP, relative to cells with no PACAP (FIG. 3)): cells grew at any concentration
- cell growth by MTT-assay (HCEC-II cells [1]; 4 days after addition, 10^−9 M to 10^−13 M PACAP (FIG. 3)): the effect was remarkable
- number of BrdU positive (dividing) cells (HCEC-II cells [7]): an increase of number of BrdU positive cells
- area of the injured site of the cornea (fluorescent area) ([8]; 10^−9 M PACAP instilled, 12 hours after injuring, vs saline group (FIG. 9C)): significantly smaller
- periphery of the injured site of the cornea ([8]; 10^−9 M PACAP instilled, 12 hours after injuring, vs saline group (not shown in figures)): significantly smaller
- area of the injured site of the cornea (fluorescent area) ([8]; 10^−11 M PACAP instilled, 12 hours after injuring, vs saline group (FIG. 9C)): significantly smaller
- periphery of the injured site of the cornea ([8]; 10^−11 M PACAP instilled, 12 hours after injuring, vs saline group (not shown in figures)): significantly smaller
- size of injured sites of corneas (fluorescence image) ([8]; 12 and 24 hours after injuring, PACAP-instilled vs saline-instilled group (FIG. 9A)): became smaller than those of the saline-instilled group
- corneal epithelium in HE staining ([8]; 12 hours after instillation (FIG. 9B)): the corneal epithelium was restored
- area of the injured site of the cornea (fluorescent area) ([8]; all concentrations (10^−9, 10^−11, 10^−13 M), 24 hours after injuring, p<0.01 vs saline group (FIG. 9C)): significantly smaller
- periphery of the injured site of the cornea ([8]; all concentrations, 24 hours after injuring (not shown in figures)): significantly smaller
- most effective concentration of PACAP ([8]; instillation, injured cornea area): 10^−11 M
- area of the scratch site [9]: significantly reduced
